Reference: ChEMBL document CHEMBL4699397, “Development of potent CPP6-gemcitabine conjugates against human prostate cancer cell line (PC-3)” (RSC Med Chem, 2020)
*1 amine or outer side, *2 acyl side, *3 side chain or, on linkers, in order; H or OH if unused. Where a SMILES comes first, the peptide text is derived from it. The star is where a group is joined. X1 = O=c1nc(N*)ccn1[C@@H]1O[C@H](CO)[C@@H](O)C1(F)F; Suc = O=C(CCC(=O)[*:2])[*:1]

Assays:
PC-3 = experiment: Cytotoxicity against human PC-3 cells assessed as inhibition of cell growth measured after 72 hrs by MTT assay; assay type: functional, cell-based; settings: PC-3, 72 h
MCF7 = experiment: Cytotoxicity against human MCF7 cells assessed as inhibition of cell growth measured after 72 hrs by MTT assay; assay type: functional, cell-based; settings: MCF7, 72 h
BXPC-3 = experiment: Cytotoxicity against human BXPC-3 cells assessed as inhibition of cell growth measured after 72 hrs by SRB assay; assay type: functional, cell-based; settings: BXPC-3, 72 h
[1] = Half life of the compound; assay type: physicochemical

| Molecule | IC50 (PC-3) | IC50 (MCF7) | IC50 (BXPC-3) | half-life [1] |
| --- | --- | --- | --- | --- |
| CSCC[C@H](NC(=O)[C@@H](NC(=O)[C@@H]1CCCN1C(=O)[C@H](CC(C)C)NC(=O)[C@H](CCCCN)NC(=O)[C@@H](N)Cc1c[nH]c2ccccc12)C(C)C)C(N)=O | > 1000 nM | 223 nM | > 1000 nM |  |
| CSCC[C@H](NC(=O)[C@@H](NC(=O)[C@@H]1CCCN1C(=O)[C@H](CC(C)C)NC(=O)[C@H](CCCCN)NC(=O)CCC(=O)Nc1ccn([C@@H]2O[C@H](CO)[C@@H](O)C2(F)F)c(=O)n1)C(C)C)C(=O)N[C@@H](Cc1c[nH]c2ccccc12)C(N)=O ({X1-Suc}-KLPVMW-NH2) | > 1000 nM | 6.9 nM | 170 nM |  |
| CSCC[C@H](NC(=O)[C@@H](NC(=O)[C@@H]1CCCN1C(=O)[C@H](CC(C)C)NC(=O)[C@H](CCCCN)NC(=O)[C@H](Cc1c[nH]c2ccccc12)NC(=O)CCC(=O)Nc1ccn([C@@H]2O[C@H](CO)[C@@H](O)C2(F)F)c(=O)n1)C(C)C)C(N)=O ({X1-Suc}-WKLPVM-NH2) | 15 nM | 5.1 nM | 180 nM |  |
| CC(C)C[C@H](NC(=O)[C@@H](NC(=O)[C@@H]1CCCN1C(=O)[C@@H](NC(=O)[C@H](Cc1c[nH]c2ccccc12)NC(=O)CCC(=O)Nc1ccn([C@@H]2O[C@H](CO)[C@@H](O)C2(F)F)c(=O)n1)C(C)C)[C@@H](C)O)C(=O)N[C@@H](CCCCN)C(N)=O ({X1-Suc}-WVPTLK-NH2) | 14 nM | 4 nM | 200 nM |  |
| Nc1ccn([C@@H]2O[C@H](CO)[C@@H](O)C2(F)F)c(=O)n1 [GEMCITABINE] | 74 nM | 1.4 nM | 130 nM | 8 min |
| CN(C)C(=N)NC(=N)N [METFORMIN] | 189 nM | 9.9 nM |  |  |
| CC/C(=C(\c1ccccc1)c1ccc(OCCN(C)C)cc1)c1ccccc1 [TAMOXIFEN] | > 1000 nM |  |  |  |
| H-KLPVMW-NH2 | > 1000 nM | > 1000 nM | > 1000 nM |  |
| H-WVPTLK-NH2 | > 1000 nM | > 1000 nM | > 1000 nM |  |
